According to patent US20110166077A9, “COMBINED THERAPY AGAINST TUMORS COMPRISING SUBSTITUTED ACRYLOYL DISTAMYCIN DERIVATIVES AND RADIOTHERAPY” (Pharmacia Italia S.p.A., priority 2002, published 2011):
Values joined by “and” are separate entries in the source; they are usually repeats but may differ in a detail not shown here. Equal entries are not always repeated. Marks after values point to notes of the source that are not given here.

Tests used:
[1] = test system: SQ20B (radiation-resistant human squamous cell carcinoma of the larynx) cell line; assay: in vitro clonogenic assay, drug combined with ionizing radiation, SQ20B; assay type: cell-based; settings: for C20 drug concentration corresponding to 20% cell survival / C80 drug concentration corresponding to 80% cell survival: drug alone, 2 h treatment; for Sensitization Ratio SR, Values for each culture: simultaneous schedule (2 h drug, 10 min irradiation at start of 2nd hour), SR<1 = radiosensitisation; for Sensitization Ratio SR, Mean of duplicates: simultaneous schedule
Description: (§1) The remarkable radiosensitisation effect exerted by the α-bromo- or α-chloro-acryloyl-distamycin derivatives, in particular the compounds of formula (I), is shown according to in vitro clonogenic assays on SQ20B (radiation-resistant human squamous cell carcinoma of the larynx) and A431 (human vulval carcinoma) cell lines. In this respect, two different schedule treatments were evaluated either comprising simultaneous exposure to the tested compound of formula (I) and to radiation, or sequential exposure to both these cytotoxic agents in any order, that is drug/radiation or radiation/drug (see details below). As control, the effect of cisplatin in combination with radiotherapy has been tested in the same operative conditions.
(§2) To define a Sensitization Ratio (SR), the clonogenic survival of cells being treated with a combination of irradiation and drug exposure (SX+D) was compared with the product of survival for drug alone (SD) and irradiation alone (SX), as follows SR=SX+D/SD*SX
(§3) From the above, it is clear to the skilled person that if both radiation and drug exerted their cytotoxic effect independently from each other, SR values would be close to 1 whereas, on the contrary, a radiosensitisation effect indicating a synergism between ionizing radiation and drug is characterized by SR values lower than 1 (SR<1).
(§4) For both compounds Compound A and cisplatin, exposures were simultaneous to ionizing radiation in both SQ20B and A431 cell lines. The schedule consisted of 2 h drug treatment with a period of irradiation (10 minutes) starting at the beginning of the 2nd hour of treatment.
(§5) Four data sets for each of Compound A and cisplatin, in each cell line were obtained (see table 1) comprising duplicates of two different drug concentration chosen to yield cytotoxicity values corresponding to 80% (C80) and 20% (C20) survival for treatment with the drug alone. […]

[2] = test system: A431 (human vulval carcinoma) cell line; assay: in vitro clonogenic assay, drug combined with ionizing radiation, A431; assay type: cell-based; settings: for C20 drug concentration corresponding to 20% cell survival / C80 drug concentration corresponding to 80% cell survival: drug alone, 2 h treatment; for Sensitization Ratio SR, Values for each culture: simultaneous schedule (2 h drug, 10 min irradiation at start of 2nd hour), SR<1 = radiosensitisation; for Sensitization Ratio SR, Mean of duplicates: simultaneous schedule
Description: as §1, §2, §3, §4, §5

[3] = drug at C20 (Compound A 350 ng/ml, cisplatin 6.5 μM)
[4] = drug at C80 (Compound A 50 ng/ml, cisplatin 0.4 μM)
[5] = drug at C20 (Compound A 90 ng/ml, cisplatin 5.0 μM)
[6] = drug at C80 (Compound A 20 ng/ml, cisplatin 0.8 μM)

Compound: C=C(Br)C(=O)Nc1cc(C(=O)Nc2cc(C(=O)Nc3cc(C(=O)Nc4cc(C(=O)NCCNC(=N)N)n(C)c4)n(C)c3)n(C)c2)n(C)c1.Cl [Compound A, N-[5-[[[5-[[[2-[(animoiminomethyl)amino]ethyl]amino]carbonyl]-1-methyl-1H-pyrrol-3-yl]amino]carbonyl]-1-methyl-1H-pyrrol-3-yl]-4-[[[4-[(2-bromo-1-oxo-2-propenyl)amino]-1-methyl-1H-pyrrol-2-yl]carbonyl]amino]-1-methyl-1H-pyrrole-2-carboxamide hydrochloride]
- Sensitization Ratio SR / radiosensitisation effect ([1]; combination with radiotherapy, summary over concentrations): lower than 1
- C20 drug concentration corresponding to 20% cell survival [1]: 350 (C20)^(d) ng/ml
- C80 drug concentration corresponding to 80% cell survival [1]: 50 (C80)^(c) ng/ml
- Sensitization Ratio SR, Values for each culture ([1]; drug at C20 (Compound A 350 ng/ml, cisplatin 6.5 μM), hydrochloride): 0.55 and 0.46
- Sensitization Ratio SR, Values for each culture ([1]; drug at C80 (Compound A 50 ng/ml, cisplatin 0.4 μM), hydrochloride): 0.84 and 0.85
- Sensitization Ratio SR, Mean of duplicates [1, 3]: C20 0.50
- Sensitization Ratio SR, Mean of duplicates [1, 4]: C80 0.85
- C20 drug concentration corresponding to 20% cell survival [2]: 90 (C20) ng/ml
- C80 drug concentration corresponding to 80% cell survival [2]: 20 (C80) ng/ml
- Sensitization Ratio SR, Values for each culture ([2]; drug at C20 (Compound A 90 ng/ml, cisplatin 5.0 μM), hydrochloride): 0.33 and 0.40
- Sensitization Ratio SR, Values for each culture ([2]; drug at C80 (Compound A 20 ng/ml, cisplatin 0.8 μM), hydrochloride): 0.65 and 0.59
- Sensitization Ratio SR, Mean of duplicates [2, 5]: C20 0.37
- Sensitization Ratio SR, Mean of duplicates [2, 6]: C80 0.62

Compound: N.N.[Cl][Pt][Cl] [cisplatin, reference compound]
- C20 drug concentration corresponding to 20% cell survival [1]: 6.5 (C20) μM
- C80 drug concentration corresponding to 80% cell survival [1]: 0.4 (C80) μM
- Sensitization Ratio SR, Values for each culture [1, 3]: 0.72 and 0.81
- Sensitization Ratio SR, Values for each culture [1, 4]: 0.78 and 0.82
- Sensitization Ratio SR, Mean of duplicates [1, 3]: C20 0.77
- Sensitization Ratio SR, Mean of duplicates [1, 4]: C80 0.80
- C20 drug concentration corresponding to 20% cell survival [2]: 5.0 (C20) μM
- C80 drug concentration corresponding to 80% cell survival [2]: 0.8 (C80) μM
- Sensitization Ratio SR, Values for each culture [2, 5]: 1.08 and 0.86
- Sensitization Ratio SR, Values for each culture [2, 6]: 1.02 and 0.84
- Sensitization Ratio SR, Mean of duplicates [2, 5]: C20 0.97
- Sensitization Ratio SR, Mean of duplicates [2, 6]: C80 0.96
